The values below come from the NIST ThermoML archive (doi:10.1016/j.fluid.2006.03.009).

The conditions of this data set: Liquid.

Numbers after ± are expanded uncertainties.

For `CCC` [propane], the vapor or sublimation pressure – broadly, the equilibrium pressure above the liquid or solid – is 474 ± 2.6 kPa (273.15 K); 550.8 ± 2.8 kPa (278.15 K); 636 ± 2.9 kPa (283.15 K); 836.2 ± 3.4 kPa (293.15 K); 1077.6 ± 4 kPa (303.15 K); 1368 ± 4.7 kPa (313.15 K).

Regarding `C=CC` [propene], the “vapor or sublimation pressure” value came to 586 ± 2.8 kPa (273.15 K); 678.5 ± 3 kPa (278.15 K); 780.8 ± 3.3 kPa (283.15 K); 1019 ± 3.8 kPa (293.15 K); 1307.6 ± 4.6 kPa (303.15 K); 1652.2 ± 5.6 kPa (313.15 K).
